Like-named read-outs stand apart in the source and are kept apart here.
Molecular target: T1, AR protein (Homo sapiens, UniProt P10275, T878A)
T1 construct: The percent AR protein degradation induced by these compounds at various concentrations in LNCaP cells; host or cells: LNCaP
T1 sequence (P10275 1-920 T878A): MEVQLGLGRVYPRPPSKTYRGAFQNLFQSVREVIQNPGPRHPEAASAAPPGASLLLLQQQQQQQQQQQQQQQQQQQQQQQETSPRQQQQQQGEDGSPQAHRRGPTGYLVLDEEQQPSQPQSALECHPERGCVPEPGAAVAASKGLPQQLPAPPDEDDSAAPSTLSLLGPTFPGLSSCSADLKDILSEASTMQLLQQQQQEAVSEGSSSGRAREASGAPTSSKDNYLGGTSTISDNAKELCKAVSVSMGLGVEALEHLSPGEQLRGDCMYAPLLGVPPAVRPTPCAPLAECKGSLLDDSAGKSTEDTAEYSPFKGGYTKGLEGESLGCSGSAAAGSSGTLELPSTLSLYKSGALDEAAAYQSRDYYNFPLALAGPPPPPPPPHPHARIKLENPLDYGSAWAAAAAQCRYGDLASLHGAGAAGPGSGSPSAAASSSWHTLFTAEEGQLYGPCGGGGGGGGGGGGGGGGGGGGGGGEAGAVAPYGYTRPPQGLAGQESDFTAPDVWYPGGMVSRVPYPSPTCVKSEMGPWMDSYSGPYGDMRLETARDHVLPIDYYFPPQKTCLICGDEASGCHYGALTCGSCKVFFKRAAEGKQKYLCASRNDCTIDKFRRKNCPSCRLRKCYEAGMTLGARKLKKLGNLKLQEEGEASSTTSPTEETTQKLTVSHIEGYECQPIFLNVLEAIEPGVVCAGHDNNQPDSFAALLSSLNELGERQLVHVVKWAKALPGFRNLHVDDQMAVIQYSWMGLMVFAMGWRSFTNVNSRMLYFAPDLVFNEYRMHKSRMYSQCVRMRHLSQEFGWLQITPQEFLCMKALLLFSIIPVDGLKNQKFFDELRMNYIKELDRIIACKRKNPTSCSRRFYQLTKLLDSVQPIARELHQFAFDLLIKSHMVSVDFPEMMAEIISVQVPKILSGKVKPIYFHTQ
Test: AR protein degradation in LNCaP cells (Western blotting)
Type: cell-based
Description: Cell lines and Cell Culture: All the LNCaP, VCaP and 22RV1 cells used were purchased from American Type Culture Collection (ATCC). […] All of the cells were supplemented with 10% fetal bovine serum (Invitrogen) at 37° C. in a humidified 5% CO2 incubator.
Western Blotting. Treated cells were lysed by RIPA buffer supplemented with protease and phosphatase inhibitors. […] Software ImageJ was used to quantify the percentage of AR degradation. The net protein bands and loading controls are calculated by deducting the background from the inverted band value. The final relative quantification values are the ratio of net band to net loading control.

[1] = 0.1 μM, treatment time 6 h, average of three independent experiments
[2] = 1 μM, treatment time 6 h, average of three independent experiments
[3] = LNCaP, 0.01 μM, treatment time 6 h, average of three independent experiments
[4] = LNCaP, 0.1 μM, treatment time 6 h, average of three independent experiments, read-out: % AR protein degradation in LNCaP Cells
[5] = LNCaP, 1 μM, treatment time 6 h, average of three independent experiments, read-out: % AR protein degradation in LNCaP Cells
[6] = 0.01 μM, treatment time 6 h, average of three independent experiments
[7] = LNCaP, 6 h, read-out: % AR protein degradation in LNCaP Cells

Structure (SMILES)	% AR protein degradation in LNCaP Cells [1]	% AR protein degradation in LNCaP Cells [2]	Dmax at 0.01 µM [3]	Dmax at 0.1 µM [4]	Dmax at 1 µM [5]	% AR protein degradation in LNCaP Cells [6]	other results
Cc1ncsc1-c1ccc([C@H](C)NC(=O)C2C[C@@H](O)CN2C(=O)[C@@H](NC(=O)N2CCN(c3ccc(C#Cc4ccc(N5C(=S)N(c6ccc(C#N)c(C(F)(F)F)c6)C(=O)C5(C)C)cc4)cn3)CC2)C(C)(C)C)cc1 (stereo partly drawn) [Compound 25, 4-(5-((4-(3-(4-Cyano-3-(trifluoromethyl)phenyl)-5,5-dimethyl-4-oxo-2-thioxoimid-azolidin-1-yl)phenyl)ethynyl)pyridin-2-yl)-N-((2S)-1-((4R)-4-hydroxy-2-(((S)-1-(4-(4-methylthiazol-5-yl)phenyl)ethyl)carbamoyl)pyrrolidin-1-yl)-3,3-dimethyl-1-oxobutan-2-yl)piperazine-1-carboxamide]	0%	12%	–	–	–	–	% AR protein degradation in LNCaP Cells (10 μM, treatment time 6 h, average of three independent experiments): 0%
Cc1cc([C@H](C(=O)N2C[C@H](O)C[C@H]2C(=O)N[C@@H](CC(=O)NCCCCCCCCCNC(=O)c2ccc(N3C(=S)N(c4ccc(C#N)c(C(F)(F)F)c4)C(=O)C3(C)C)cc2F)c2ccc(-c3scnc3C)cc2)C(C)C)on1 [Compound 26, (2S,4R)—N—((S)-3-((9-(4-(3-(4-Cyano-3-(trifluoromethyl)phenyl)-5,5-dimethyl-4-oxo-2-thioxoimidazolidin-1-yl)-2-fluorobenzamido)nonyl)amino)-1-(4-(4-methylthiazol-5-yl)phenyl)-3-oxopropyl)-4-hydroxy-1-((R)-3-methyl-2-(3-methylisoxazol-5-yl)butanoyl)pyrrolidine-2-carboxamide]	–	–	11%	50%	87%	–	–
Cc1cc([C@H](C(=O)N2C[C@H](O)C[C@H]2C(=O)N[C@@H](CC(=O)NCCCN2CCN(c3ccc(C#Cc4ccc(N5C(=S)N(c6ccc(C#N)c(C(F)(F)F)c6)C(=O)C5(C)C)cc4)cn3)CC2)c2ccc(-c3scnc3C)cc2)C(C)C)on1 [Compound 27, (2S,4R)—N—((S)-3-((3-(4-(5-((4-(3-(4-Cyano-3-(trifluoromethyl)phenyl)-5,5-dimethyl-4-oxo-2-thioxoimidazolidin-1-yl)phenyl)ethynyl)pyridin-2-yl)piperazin-1-yl)propyl)amino)-1-(4-(4-methylthiazol-5-yl)phenyl)-3-oxopropyl)-4-hydroxy-1-((R)-3-methyl-2-(3-methylisoxazol-5-yl)butanoyl)pyrrolidine-2-carboxamide]	–	–	27%	75%	94%	–	–
Cc1cc([C@H](C(=O)N2C[C@H](O)C[C@H]2C(=O)N[C@@H](CC(=O)N2CCN(c3ccc(C#Cc4ccc(C(=O)N[C@H]5C(C)(C)[C@H](Oc6ccc(C#N)c(Cl)c6)C5(C)C)cc4)cn3)CC2)c2ccc(-c3scnc3C)cc2)C(C)C)on1 [Compound 28, (2S,4R)—N—((S)-3-(4-(5-((4-(((1r,3r)-3-(3-Chloro-4-cyanophenoxy)-2,2,4,4-tetramethylcyclobutyl)carbamoyl)phenyl)ethynyl)pyridin-2-yl)piperazin-1-yl)-1-(4-(4-methylthiazol-5-yl)phenyl)-3-oxopropyl)-4-hydroxy-1-((R)-3-methyl-2-(3-methylisoxazol-5-yl)butanoyl)pyrrolidine-2-carboxamide]	72%	93%	–	–	–	22%	–
Cc1cc([C@H](C(=O)N2C[C@H](O)C[C@H]2C(=O)N[C@@H](CC(=O)N2CCC(N3CCC(C#Cc4ccc(N5C(=S)N(c6ccc(C#N)c(C(F)(F)F)c6)C(=O)C5(C)C)cc4)CC3)CC2)c2ccc(-c3scnc3C)cc2)C(C)C)on1 [Compound 29, (2S,4R)—N—((S)-3-(4-((4-(3-(4-Cyano-3-(trifluoromethyl)phenyl)-5,5-dimethyl-4-oxo-2-thioxoimidazolidin-1-yl)phenyl)ethynyl)-[1,4′-bipiperidin]-1′-yl)-1-(4-(4-methylthiazol-5-yl)phenyl)-3-oxopropyl)-4-hydroxy-1-((R)-3-methyl-2-(3-methylisoxazol-5-yl)butanoyl)pyrrolidine-2-carboxamide]	–	–	20%	81%	97%	–	–
Cc1cc([C@H](C(=O)N2C[C@H](O)C[C@H]2C(=O)N[C@@H](CC(=O)N2CCC(N3CCC(C#Cc4ccc(N5C(=S)N(c6cnc(C#N)c(C(F)(F)F)c6)C(=O)C56CCC6)cc4)CC3)CC2)c2ccc(-c3scnc3C)cc2)C(C)C)on1 [Compound 30, (2S,4R)—N—((S)-3-(4-((4-(7-(6-Cyano-5-(trifluoromethyl)pyridin-3-yl)-8-oxo-6-thioxo-5,7-diazaspiro[3.4]octan-5-yl)phenyl)ethynyl)-[1,4′-bipiperidin]-1′-yl)-1-(4-(4-methylthiazol-5-yl)phenyl)-3-oxopropyl)-4-hydroxy-1-((R)-3-methyl-2-(3-methylisoxazol-5-yl)butanoyl)pyrrolidine-2-carboxamide]	–	–	38%	80%	95%	–	–
Cc1cc([C@H](C(=O)N2C[C@H](O)C[C@H]2C(=O)N[C@@H](CC(=O)N2CCC(N3CCC(C#Cc4ccc(C(=O)N[C@H]5C(C)(C)[C@H](Oc6ccc(C#N)c(Cl)c6)C5(C)C)cc4)CC3)CC2)c2ccc(-c3scnc3C)cc2)C(C)C)on1 [Compound 32, (2S,4R)—N—((S)-3-(4-((4-(((1r,3r)-3-(3-Chloro-4-cyanophenoxy)-2,2,4,4-tetramethyl-cyclobutyl)carbamoyl)phenyl)ethynyl)-[1,4′-bipiperidin]-1′-yl)-1-(4-(4-methylthiazol-5-yl)phenyl)-3-oxopropyl)-4-hydroxy-1-((R)-3-methyl-2-(3-methylisoxazol-5-yl)butanoyl)pyrrolidine-2-carboxamide]	98%	99%	–	–	–	76%	AR degradation (Western blotting, dose-dependent) (LNCaP, at 10 nM): partial AR degradation; AR degradation (Western blotting, dose-dependent) (LNCaP, at both 100 nM and 1 μM): essentially complete AR degradation
Cc1cc([C@H](C(=O)N2C[C@H](O)C[C@H]2C(=O)N[C@@H](CC(=O)N2CCC(N3CCC(C#Cc4ccc(Cc5c(C)nn(-c6ccc(C#N)c(Cl)c6)c5C)cc4)CC3)CC2)c2ccc(-c3scnc3C)cc2)C(C)C)on1 [Compound 33, (2S,4R)—N—((S)-3-(4-((4-((1-(3-Chloro-4-cyanophenyl)-3,5-dimethyl-1H-pyrazol-4-yl)methyl)phenyl)ethynyl)-[1,4′-bipiperidin]-1′-yl)-1-(4-(4-methylthiazol-5-yl)phenyl)-3-oxopropyl)-4-hydroxy-1-((R)-3-methyl-2-(3-methylisoxazol-5-yl)butanoyl)pyrrolidine-2-carboxamide]	–	–	–	–	–	–	Dmax at 0.1 µM [7]: 65%; Dmax at 1 µM [7]: 93%; Dmax at 10 µM [7]: 78%
Cc1ncsc1-c1ccc([C@H](CC(=O)N2CCC(N3CCC(C#Cc4ccc(C(=O)N[C@H]5C(C)(C)[C@H](Oc6ccc(C#N)c(Cl)c6)C5(C)C)cc4)CC3)CC2)NC(=O)[C@@H]2C[C@@H](O)CN2C(=O)[C@@H](NC(=O)C2(C#N)CC2)C(C)(C)C)cc1 [Compound 35, (2S,4R)—N—((S)-3-(4-((4-(((1r,3r)-3-(3-Chloro-4-cyanophenoxy)-2,2,4,4-tetramethyl-cyclobutyl)carbamoyl)phenyl)ethynyl)-[1,4′-bipiperidin]-1′-yl)-1-(4-(4-methylthiazol-5-yl)phenyl)-3-oxopropyl)-1-((S)-2-(1-cyanocyclopropane-1-carboxamido)-3,3-dimethylbutanoyl)-4-hydroxypyrrolidine-2-carboxamide]	99%	100%	–	–	–	76%	AR degradation (Western blotting, dose-dependent) (LNCaP, at 10 nM): partial AR degradation; AR degradation (Western blotting, dose-dependent) (LNCaP, at both 100 nM and 1 μM): essentially complete AR degradation
